From ChEMBL document CHEMBL1201862, “PubChem BioAssay data set” (2004)
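The compound was tested at five concentrations on cells cultured in 96-well plates, with a 48-hour exposure period. Here, GI50 denotes the concentration required for 50% inhibition of growth.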 The source made the active and inactive calls. Cut-off read from the data, not from the text of the source: active = GI50 up to about 1.1 µM and inactive = higher.

How the values were obtained:
Test in all cases: DTP human tumour cell line panel, 48 h
[1] = tested on: A498
[2] = tested on: A549
[3] = tested on: ACHN
[4] = tested on: EKVX
[5] = tested on: IGROV-1
[6] = tested on: M14
[7] = tested on: MDA-MB-435
[8] = tested on: MOLT-4
[9] = tested on: Malme-3M
[10] = tested on: NCI-H23
[11] = tested on: OVCAR-3
[12] = tested on: OVCAR-5
[13] = tested on: RPMI-8226
[14] = tested on: SF-295
[15] = tested on: SK-MEL-28
[16] = tested on: SK-MEL-2
[17] = tested on: SNB-19
[18] = tested on: T47D
[19] = tested on: U-251
[20] = tested on: LOX IMVI

Measured: GI50

C=CCN1C[C@@H](C)N([C@@H](c2ccccc2)c2ccc(C(=O)N(CC)CC)cc2)C[C@@H]1C
inactive: [1] > 100 µM | [2] > 100 µM | [3] > 100 µM | [4] > 100 µM | [5] > 100 µM | [6] > 100 µM | [7] > 100 µM | [8] 33.3 µM | [9] > 100 µM | [10] > 100 µM | [11] > 100 µM | [12] > 100 µM | [13] 95.5 µM | [14] > 100 µM | [15] > 100 µM | [16] > 100 µM | [17] > 100 µM | [18] 65.8 µM | [19] > 100 µM

COc1ccc(NC(=O)CC(=O)N2N=C(N(c3ccccc3)c3ccccc3)CC2c2ccccc2)cc1 (stereo unspecified)
inactive: [1] > 100 µM | [2] > 100 µM | [3] > 100 µM | [4] > 100 µM | [5] > 100 µM | [20] > 100 µM | [6] > 100 µM | [7] > 100 µM | [8] > 100 µM | [10] > 100 µM | [11] > 100 µM | [12] > 100 µM | [13] > 100 µM | [14] > 100 µM | [15] > 100 µM | [16] > 100 µM | [17] > 100 µM | [18] > 100 µM | [19] > 100 µM

CC[C@@H](/C=C\CCC1(C[C@@H](N)CCC=C(C)C)OCCO1)O[Si](C(C)C)(C(C)C)C(C)C
inactive: [1] 18.2 µM | [2] 18.2 µM | [3] 18 µM | [4] 15.6 µM | [5] 15.8 µM | [20] 4.97 µM | [6] 18.5 µM | [7] 18.4 µM | [8] 17.6 µM | [10] 21.1 µM | [11] 18.7 µM | [12] 17.2 µM | [13] 17.9 µM | [14] 19 µM | [15] 18 µM | [16] 17.3 µM | [17] 18.5 µM | [18] 23.2 µM | [19] 19.9 µM

C1=N\c2ccc(cc2)-c2ccc(cc2)/N=C\c2ccc(cc2)OCc2cccc(n2)COc2ccc/1cc2
inactive: [1] > 100 µM | [2] > 100 µM | [3] > 100 µM | [4] 45.8 µM | [5] > 100 µM | [6] > 100 µM | [7] > 100 µM | [8] 85.3 µM | [9] 33 µM | [10] > 100 µM | [11] > 100 µM | [12] > 100 µM | [13] > 100 µM | [14] 79.4 µM | [15] > 100 µM | [16] > 100 µM | [17] 38.9 µM | [18] > 100 µM | [19] 45.5 µM
